How the values were obtained:
Type in all cases: in vivo, soybean
mutant line W23 = experiment: Test B postemergence cross resistance test; conditions: Glycine max, post-emergence
From the text: (§1) In the second postemergence test, six true-breeding resistant mutant lines (W4, W17, W19, W20, W23, and W28) were compared to Williams 82 for cross resistance to a broad range of ALS inhibitors including eight sulfonylureas and three imidazolinones. Two seeds were planted in each 10 cm pot and allowed to grow to the second trifoliolate stage. Pots were not thinned back if both plants were at the proper stage. For each of 11 herbicides, two rates (Table VII) were selected based on previous data: the low rate was expected to cause significant injury (but not death) to Williams 82 and the high rate was expected to severely injure or kill Williams 82. All but a few line x rate treatments were replicated twice.
(§2) In both postemergence tests, plants were returned to the greenhouse after treatment and provided with ample light, moisture, and nutrients to support healthy plant growth. Two to three ratings per pot were recorded over a three-week period and averaged to obtain a single value for each pot For each herbicide, analysis of variance on injury ratings was performed separately. Fisher's least significant difference (LSD) was used to determine the significance of line mean differences at each herbicide rate using the 95% level of confidence. […]

mutant line W4 = experiment: Test B postemergence cross resistance test; conditions: Glycine max, post-emergence
From the text: as §1, §2

mutant line W17 = experiment: Test B postemergence cross resistance test; conditions: Glycine max, post-emergence
From the text: as §1, §2

mutant line W28 = experiment: Test B postemergence cross resistance test; conditions: Glycine max, post-emergence
From the text: as §1, §2

Williams 82 [1] = experiment: Test B postemergence cross resistance test; conditions: Glycine max, post-emergence, read-out: mean % injury
From the text: as §1, §2

mutant line W19 = experiment: Test B postemergence cross resistance test; conditions: Glycine max, post-emergence
From the text: as §1, §2

mutant line W20 = experiment: Test B postemergence cross resistance test; conditions: Glycine max, post-emergence
From the text: as §1
In both postemergence tests, plants were returned to the greenhouse after treatment and provided with ample light, moisture, and nutrients to support healthy plant growth. Two to three ratings per pot were recorded over a three-week period and averaged to obtain a single value for each pot For each herbicide, analysis of variance on injury ratings was performed separately. Fisher's least significant difference (LSD) was used to determine the significance of line mean differences at each herbicide rate using the 95% level of confidence.

W20 = experiment: Test C preemergence (soil) sulfonylurea application; conditions: 19 days after treatment
From the text: (§3) W20, a line homozygous for a dominant sulfonylurea-resistance mutation, was compared to Williams 82 in terms of response to preemergence application of three sulfonylurea herbicides. The experimental unit consisted of a single 18 cm pot filled with soil (Sassafras loamy sand with 0.8% organic matter and pH 6.7) in which 6 seeds of a given soybean line were planted 2 cm deep. After planting, each pot was sprayed (using a conveyor belt spray apparatus to emulate field application) with one of 22 different treatments including a check sprayed with AGWT (90% acetone, 4% glycerol, 4% water, 2% Tween-20), and 21 different herbicide treatments using AGWT as a carrier. The herbicide treatments included 7 different concentrations (Table IX) each of three sulfonyl-ureas: Compound 5, Compound 4, and Compound 1. Each herbicide x line treatment was replicated three times. After herbicide treatment, pots were transferred to a greenhouse and arranged in a randomized complete block design. Nineteen days after treatment, each pot was rated visually for herbicide injury using the scale described previously. For each herbicide, analysis of variance on injury ratings was performed separately. Fisher's least significant difference (LSD) was used to determine the significance of line mean differences at each rate using the 95% level of confidence.

Williams 82 [2] = experiment: as above; conditions: 19 days after treatment
From the text: as §3

Q: How did the percent soybean injury at 16 g/ha (mutant line W23; W23, 16 g/ha postemergence) turn out when `CCOC(=O)c1ccccc1S(=O)(=O)NC(=O)Nc1nc(Cl)cc(OC)n1` [Compound 5, Ethyl 2[[[[(4-chloro-6-methoxy-2-pyrimidinyl)amino]carbonyl]amino]sulfonyl]benzoate] was run?
A: 0%

Q: And the percent soybean injury at 64 g/ha (mutant line W23; W23, 64 g/ha postemergence)?
A: 10%

Q: What about the % crop injury at 16 g/ha (mutant line W4; W4, 16 g/ha postemergence) of the same molecule?
A: 6%

Q: And the % crop injury at 64 g/ha (mutant line W4; W4, 64 g/ha postemergence)?
A: 0%

Q: And the soybean crop injury (%) at 16 g/ha (mutant line W17; W17, 16 g/ha postemergence)?
A: 0%

Q: What about the soybean crop injury (%) at 64 g/ha (mutant line W17; W17, 64 g/ha postemergence) of the same molecule?
A: 0%

Q: And the mean % injury to soybean at 16 g/ha (mutant line W28; W28, 16 g/ha postemergence)?
A: 0%

Q: And the mean % injury to soybean at 64 g/ha (mutant line W28; W28, 64 g/ha postemergence)?
A: 0%

Q: And the pest or weed control at 16 g/ha (Williams 82 [1])?
A: 40%

Q: And the pest or weed control at 64 g/ha (Williams 82 [1])?
A: 58%

Q: And the percent soybean crop injury at 16 g/ha (mutant line W19; W19, 16 g/ha postemergence)?
A: 0%

Q: And the percent soybean crop injury at 64 g/ha (mutant line W19; W19, 64 g/ha postemergence)?
A: 20%

Q: What about the percent crop injury at 16 g/ha (mutant line W20; W20, 16 g/ha postemergence) of the same molecule?
A: 0%

Q: What about the percent crop injury at 64 g/ha (mutant line W20; W20, 64 g/ha postemergence) of the same molecule?
A: 0%

Q: What about the “% Injury” value (W20; W20, 1 g/ha preemergence) of the same molecule?
A: 0%

Q: What about the “% Injury” value (W20; W20, 3 g/ha preemergence) of the same molecule?
A: 0%

Q: And the “% Injury” value (W20; W20, 10 g/ha preemergence)?
A: 0%

Q: What about the “% Injury” value (W20; W20, 30 g/ha preemergence) of the same molecule?
A: 3%

Q: What about the “% Injury” value (W20; W20, 100 g/ha preemergence) of the same molecule?
A: 10%

Q: And the “% Injury” value (W20; W20, 300 g/ha preemergence)?
A: 15%

Q: And the “% Injury” value (W20; W20, 1000 g/ha preemergence)?
A: 35%

Q: And the “% Injury” value (Williams 82 [2]; WM 82, 1 g/ha preemergence)?
A: 0%

Q: And the “% Injury” value (Williams 82 [2]; WM 82, 3 g/ha preemergence)?
A: 0%

Q: And the “% Injury” value (Williams 82 [2]; WM 82, 10 g/ha preemergence)?
A: 0%

Q: And the “% Injury” value (Williams 82 [2]; WM 82, 30 g/ha preemergence)?
A: 15%

Q: And the “% Injury” value (Williams 82 [2]; WM 82, 100 g/ha preemergence)?
A: 47%

Q: And the “% Injury” value (Williams 82 [2]; WM 82, 300 g/ha preemergence)?
A: 68%

Q: What about the “% Injury” value (Williams 82 [2]; WM 82, 1000 g/ha preemergence) of the same molecule?
A: 92%

Q: For `COC(=O)c1ccccc1S(=O)(=O)NC(=O)Nc1nc(C)cc(C)n1` [Compound 4, Methyl 2-[[[[(4,6-dimethyl-2-pyrimidinyl)amino]carbonyl]amino]sulfonyl]benzoate], which percent soybean injury at 0.5 g/ha (mutant line W23; W23, 0.5 g/ha postemergence) is on record?
A: 8%

Q: And the percent soybean injury at 2 g/ha (mutant line W23; W23, 2 g/ha postemergence)?
A: 11%

Q: What about the % crop injury at 0.5 g/ha (mutant line W4; W4, 0.5 g/ha postemergence) of the same molecule?
A: 10%

Q: What about the % crop injury at 2 g/ha (mutant line W4; W4, 2 g/ha postemergence) of the same molecule?
A: 8%

Q: And the soybean crop injury (%) at 0.5 g/ha (mutant line W17; W17, 0.5 g/ha postemergence)?
A: 3%

Q: And the soybean crop injury (%) at 2 g/ha (mutant line W17; W17, 2 g/ha postemergence)?
A: 0%

Q: And the mean % injury to soybean at 0.5 g/ha (mutant line W28; W28, 0.5 g/ha postemergence)?
A: 0%

Q: And the mean % injury to soybean at 2 g/ha (mutant line W28; W28, 2 g/ha postemergence)?
A: 18%

Q: And the pest or weed control at 0.5 g/ha (Williams 82 [1])?
A: 58%

Q: What about the pest or weed control at 2 g/ha (Williams 82 [1]) of the same molecule?
A: 95%

Q: What about the percent soybean crop injury at 0.5 g/ha (mutant line W19; W19, 0.5 g/ha postemergence) of the same molecule?
A: 3%

Q: What about the percent soybean crop injury at 2 g/ha (mutant line W19; W19, 2 g/ha postemergence) of the same molecule?
A: 18%

Q: And the percent crop injury at 0.5 g/ha (mutant line W20; W20, 0.5 g/ha postemergence)?
A: 0%

Q: What about the percent crop injury at 2 g/ha (mutant line W20; W20, 2 g/ha postemergence) of the same molecule?
A: 6%

Q: And the “% Injury” value (W20; W20, 0.3 g/ha preemergence)?
A: 0%

Q: What about the “% Injury” value (W20; W20, 1 g/ha preemergence) of the same molecule?
A: 0%

Q: And the “% Injury” value (W20; W20, 3 g/ha preemergence)?
A: 0%

Q: What about the “% Injury” value (W20; W20, 10 g/ha preemergence) of the same molecule?
A: 17%

Q: What about the “% Injury” value (W20; W20, 30 g/ha preemergence) of the same molecule?
A: 68%

Q: What about the “% Injury” value (W20; W20, 100 g/ha preemergence) of the same molecule?
A: 90%

Q: And the “% Injury” value (W20; W20, 300 g/ha preemergence)?
A: 95%

Q: And the “% Injury” value (Williams 82 [2]; WM 82, 0.3 g/ha preemergence)?
A: 33%

Q: What about the “% Injury” value (Williams 82 [2]; WM 82, 1 g/ha preemergence) of the same molecule?
A: 55%

Q: What about the “% Injury” value (Williams 82 [2]; WM 82, 3 g/ha preemergence) of the same molecule?
A: 88%

Q: What about the “% Injury” value (Williams 82 [2]; WM 82, 10 g/ha preemergence) of the same molecule?
A: 97%

Q: And the “% Injury” value (Williams 82 [2]; WM 82, 30 g/ha preemergence)?
A: 98%

Q: What about the “% Injury” value (Williams 82 [2]; WM 82, 100 g/ha preemergence) of the same molecule?
A: 100%

Q: What about the “% Injury” value (Williams 82 [2]; WM 82, 300 g/ha preemergence) of the same molecule?
A: 100%

From patent US5084082A, “Soybean plants with dominant selectable trait for herbicide resistance” (priority 1990, dated 1992)
